Each structure is given as a SMILES string.

The text below walks through data of patent US9346795B2, “Substituted sulfonamides useful as antiapoptotic Bcl inhibitors” (Bristol-Myers Squibb Company, priority 2011, dated 2016).

The target in one experiment is Bcl-xL (Homo sapiens (Human), UniProt Q07817). Briefly: Bcl-xL/Bim Fluorescence Resonance Energy Transfer Assay (FRET). The experiment is classed as binding. The procedure:
Bcl-xL/Bim Fluorescence Resonance Energy Transfer Assay (FRET) The assays were performed in black flat-bottom 384-well plates. The final assay volume was 55 μl prepared from additions of Biotin-Bcl-xL (Bcl-xL: GENBANK® Accession No. […] The reaction was incubated at room temperature for 60 minutes. After 60 minutes, 5 μL of Streptavidin-Terbium FRET detection reagent (Perkin Elmer) was added to the reaction mixture and incubated at room temperature in the dark for 30 mins. […] Compounds were dissolved at 10 mM in dimethylsulfoxide (DMSO) and evaluated at eleven concentrations. IC50 values were derived by non-linear regression analysis.

The next experiment addresses Bcl-2 (Homo sapiens (Human), UniProt P10415). Description: Bcl-2/Bim Fluorescence Polarization Assay (FPA). The experiment is classed as binding. Here is the method:
Bcl-2/Bim Fluorescence Polarization Assay (FPA)
The assays were performed in black flat-bottom 384-well plates. […] The reaction was incubated at room temperature for 60 minutes and fluorescence polarization of the reaction was detected on the LJL Plate Reader. Inhibition data were calculated from mP values generated by the no protein control reactions for 100% inhibition and vehicle-only reactions for 0% inhibition. The final concentrations of reagents in the assay were 4.9 nM BCL-2, 5 nM fluoresceinated 18-mer BIM peptide and 1% DMSO. […] Compounds were dissolved at 10 mM in dimethylsulfoxide (DMSO) and evaluated at eleven concentrations. IC50 values were derived by non-linear regression analysis.
On the technique in general: Fluorescence polarisation rises when a labelled molecule tumbles more slowly, as on binding a larger partner.

Chain of Bcl-2 (P10415 whole entry): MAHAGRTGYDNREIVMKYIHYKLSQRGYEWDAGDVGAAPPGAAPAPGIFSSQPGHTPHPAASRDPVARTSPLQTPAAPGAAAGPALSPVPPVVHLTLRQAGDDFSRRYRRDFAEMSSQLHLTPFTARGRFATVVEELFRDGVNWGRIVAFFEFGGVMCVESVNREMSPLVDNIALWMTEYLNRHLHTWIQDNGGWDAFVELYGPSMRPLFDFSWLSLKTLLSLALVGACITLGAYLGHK
Chain of Bcl-xL (Q07817 whole entry): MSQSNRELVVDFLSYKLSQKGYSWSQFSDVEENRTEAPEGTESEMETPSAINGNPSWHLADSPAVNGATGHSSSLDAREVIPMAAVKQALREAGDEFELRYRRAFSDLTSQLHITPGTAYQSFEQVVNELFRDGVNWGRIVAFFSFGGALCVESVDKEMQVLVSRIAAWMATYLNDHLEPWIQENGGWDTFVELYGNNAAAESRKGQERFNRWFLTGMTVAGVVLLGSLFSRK

In general, IC50 refers to the concentration at which inhibition is half-maximal. In the case of `CCCCN(CCCC)C(=O)c1nn(-c2ccc(C(=O)NS(=O)(=O)c3ccc4c(Cl)ccc(Br)c4c3)cc2C(=O)N2CCc3ccccc3C2)c(C)c1Cl` [Example 43, 1-(4-(8-bromo-5-chloronaphthalen-2-ylsulfonylcarbamoyl)-2-(1,2,3,4-tetrahydroisoquinoline-2-carbonyl)phenyl)-N,N-dibutyl-4-chloro-5-methyl-1H-pyrazole-3-carboxamide], the IC50 on Bcl-xL is 20 nM; against Bcl-2 it was 3.93 nM.
Turning to `CCCCN(CCCC)C(=O)c1nn(-c2ccc(C(=O)NS(=O)(=O)c3ccc4c(Cl)ccc(Cl)c4c3)cc2C(=O)N2CCc3ccccc3C2)c(C)c1Cl` [Example 44, N,N-dibutyl-4-chloro-1-(4-(5,8-dichloronaphthalen-2-ylsulfonylcarbamoyl)-2-(1,2,3,4-tetrahydroisoquinoline-2-carbonyl)phenyl)-5-methyl-1H-pyrazole-3-carboxamide], the IC50 against Bcl-xL turned out to be 30 nM; on Bcl-2, 7.25 nM.
For `CCCCN(CCCC)C(=O)c1nn(-c2ccc(C(=O)NS(=O)(=O)c3ccc4ccc(C(=O)N5CCN(C)CC5)cc4c3)cc2C(=O)N2CCc3ccccc3C2)c(C)c1Cl` [Example 46, N,N-Dibutyl-4-chloro-5-methyl-1-(4-(7-(4-methylpiperazine-1-carbonyl)naphthalen-2-ylsulfonylcarbamoyl)-2-(1,2,3,4-tetrahydroisoquinoline-2-carbonyl)phenyl)-1H-pyrazole-3-carboxamide] the same measures were 40 nM and 90 nM.
Turning to `CCCCN(CCCC)C(=O)c1nn(-c2ccc(C(=O)NS(=O)(=O)c3ccc4ccc(C(=O)N(C)C)cc4c3)cc2C(=O)N2CCc3ccccc3C2)c(C)c1Cl` [Example 48, N,N-Dibutyl-4-chloro-1-(4-(7-(dimethylcarbamoyl)naphthalen-2-ylsulfonylcarbamoyl)-2-(1,2,3,4-tetrahydroisoquinoline-2-carbonyl)phenyl)-5-methyl-1H-pyrazole-3-carboxamide], the half-inhibitory concentration (IC50) came to 80 nM on Bcl-xL and 150 nM against Bcl-2.
On to `CCCCN(CCCC)C(=O)c1nn(-c2ccc(C(=O)NS(=O)(=O)c3ccc4c(c3)CCN4CC)cc2C(=O)N2CCc3ccccc3C2)c(C)c1Cl` [Example 53, N,N-dibutyl-4-chloro-1-(4-(1-ethylindolin-5-ylsulfonylcarbamoyl)-2-(1,2,3,4-tetrahydroisoquinoline-2-carbonyl)phenyl)-5-methyl-1H-pyrazole-3-carboxamide], for which the IC50 on Bcl-xL amounted to 10 nM; against Bcl-2, 60 nM.
On to `CCCCN(CCCC)C(=O)c1nn(-c2ccc(C(=O)NS(=O)(=O)c3ccc4c(c3)CCN4C(=O)C3CCCCC3)cc2C(=O)N2CCc3ccccc3C2)c(C)c1Cl` [Example 55, N,N-dibutyl-4-chloro-1-(4-(1-(cyclohexanecarbonyl)indolin-5-ylsulfonylcarbamoyl)-2-(1,2,3,4-tetrahydroisoquinoline-2-carbonyl)phenyl)-5-methyl-1H-pyrazole-3-carboxamide], for which the IC50 against Bcl-xL worked out at 230 nM; against Bcl-2 it was 250 nM.
`CCCCN(CCCC)C(=O)c1nn(-c2ccc(C(=O)NS(=O)(=O)c3ccc4c(c3)CCN4Cc3ccc(Cl)c(Cl)c3)cc2C(=O)N2CCc3ccccc3C2)c(C)c1Cl` [Example 59, N,N-dibutyl-4-chloro-1-(4-(1-(3,4-dichlorobenzyl)indolin-5-ylsulfonylcarbamoyl)-2-(1,2,3,4-tetrahydroisoquinoline-2-carbonyl)phenyl)-5-methyl-1H-pyrazole-3-carboxamide]: the IC50 at Bcl-xL worked out at 40 nM; at Bcl-2 it was 20 nM.
Consider `CCCCN(CCCC)C(=O)c1nn(-c2ccc(C(=O)NS(=O)(=O)c3ccc4c(c3)CCN4C(=O)Cc3ccc(Cl)c(Cl)c3)cc2C(=O)N2CCc3ccccc3C2)c(C)c1Cl` [Example 64, N,N-dibutyl-4-chloro-1-(4-(1-(2-(3,4-dichlorophenyl)acetyl)indolin-5-ylsulfonylcarbamoyl)-2-(1,2,3,4-tetrahydroisoquinoline-2-carbonyl)phenyl)-5-methyl-1H-pyrazole-3-carboxamide], for which the IC50 turned out to be 2450 nM on Bcl-xL and 200 nM against Bcl-2.
